Legend:
Scpep1 = molecular target: T1, Scpep1 (Mus musculus, UniProt Q920A5); assay: Carboxypeptidase activity of purified recombinant Scpep1-His6 against ET-1; type: biochemical; settings: pH 6.5 and 7.5, 50 µM ET-1
T1 construct: Scpep1 has a cleavable signal peptide, N-linked glycans, the Ser-Asp-His catalytic triad and is proteolytically processed from a 55 kDa precursor; made in house; host or cells: HT1080 cells (stably transfected), protein purified from the culture medium
T1 sequence (Q920A5 29-452): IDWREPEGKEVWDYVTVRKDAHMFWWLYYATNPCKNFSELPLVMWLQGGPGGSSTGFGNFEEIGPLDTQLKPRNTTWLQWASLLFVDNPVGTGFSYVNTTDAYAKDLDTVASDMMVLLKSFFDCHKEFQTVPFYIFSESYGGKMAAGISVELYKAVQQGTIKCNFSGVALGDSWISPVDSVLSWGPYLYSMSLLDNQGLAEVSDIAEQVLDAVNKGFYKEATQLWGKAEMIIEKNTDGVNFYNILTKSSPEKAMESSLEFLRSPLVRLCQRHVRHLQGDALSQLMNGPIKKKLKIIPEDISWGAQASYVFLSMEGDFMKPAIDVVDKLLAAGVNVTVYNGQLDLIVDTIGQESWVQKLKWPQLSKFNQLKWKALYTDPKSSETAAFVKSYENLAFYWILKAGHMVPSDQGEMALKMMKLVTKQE
From the text: (§1) Figure 1 Scpep1 has carboxypeptidase activity against ET-1. A. Carboxypeptidase activity against ET-1 in homogenates of cultured AVSMC from WT, Scpep1 ^−/−, CathA^S190A and Scpep1 ^−/− /CathA^S190A mice as well as from the cells of Scpep1 ^−/− /CathA^S190A mice transiently transfected with pCMV-GFP and pCMV-Scpep1 plasmids. AVSMC after the passage 3 were transfected or not with Scpep1-RGS-His-Tag and pEGFP-C1 plasmids. Forty-eight hours after transfection confluent cells were harvested, homogenized and tested for carboxypeptidase activity using 50 µM ET-1 as a substrate. Data are expressed as means (±S.D.) of 3 independent experiments performed with different cell cultures. * p<0.05 and ** p<0.01 in two-tailed unpaired t-test. B. Carboxypeptidase activity against ET-1 in homogenates of cultured AVSMC from WT mice transfected with Scpep1 and CathA shRNA. […] The amino acid analysis of the reaction mixture determined that Scpep1 cleaves the C-terminal amino acid (Trp21) from ET-1 (not shown). […]
HT1080 cells stably expressing Scpep1-His6 [19] were cultured in DMEM with 0.05% FCS. […] Purity of Scpep1-His6 was monitored by silver staining and Western blotting.
(§2) Carboxypeptidase activity in cultured AVSMC was measured against 50 µM ET-1 as previously described using the method measuring the liberation rate of the C-terminal amino acid of the peptide. […]

[1] = test system: homogenates of cultured AVSMC; assay: Carboxypeptidase activity against ET-1 in homogenates of cultured AVSMC; type: biochemical, mouse; settings: 50 µM ET-1
From the text: as §1, with “shRNA. AVSMC after the passage 3 were transfected with pRFP-C-RS vectors expressing shRNA for mouse CathA and Scpep1 or non-effective 29-mer scrambled shRNA as indicated. Seventy-two hours after transfection the cells were harvested, and those expressing plasmids enriched by cell-sorting, homogenized and tested for carboxypeptidase activity using 50 µM ET-1 as a substrate. […] C. Carboxypeptidase activity against ET-1 of purified recombinant Scpep1. Scpep1 carrying a His6 tag at the C-terminus was expressed in stably transfected HT1080 cells and purified by affinity chromatography on Ni-NTA resin followed by anion-exchange chromatography as described. Carboxypeptidase activity was assayed with 50 µM ET-1 as a substrate and 0.4–0.8 µg of the purified enzyme in the reaction mixture in 50 mM sodium phosphate/50 mM sodium acetate buffer at pH 5.5, 6.5 and 7.5. Bars show mean values (±S.D.) of 3 independent experiments.” for “shRNA.”
as §2

Substance: endothelin-1 [ET-1]
- carboxypeptidase activity against ET-1 compared with pH 5.5 (Scpep1): Lower activity
- carboxypeptidase activity against ET-1 ([1]; AVSMC of CathA^S190A mice, sodium acetate buffer pH 5.4, 30–180 min at 37°C, 3 independent experiments): ~10%
- carboxypeptidase activity against ET-1 ([1]; CathA^S190A/Scpep1^−/− mice, pH 5.4, 37°C): ~6%
- carboxypeptidase activity against ET-1 ([1]; Scpep1^−/− mice, relative to WT, pH 5.4, 37°C): ~70%

Reference: paper PMC3937211, “Serine Carboxypeptidase SCPEP1 and Cathepsin A Play Complementary Roles in Regulation of Vasoconstriction via Inactivation of Endothelin-1” (PLoS Genetics, 2014)
